Experimental data taken from patent US20050069999A1, “Sh3 domain binding inhibitors” (priority 2001, published 2005).

Columns and labels:
[1] = biological target: T1, Sam68ΔC and Fyn-SH3 binding (Homo sapiens, UniProt Q07666); assay: SH3 domain binding inhibition test 1: Sam68ΔC bound to Fyn-SH3 beads, Western blot; inhibition ratio from band intensity (Test Examples 1 and 4); set-up: species or system recombinant human Sam68ΔC; mouse recombinant Fyn SH3 domain; conditions: for inhibition at 60 µM / inhibition at 150 µM: read-out: The inhibition ratio (%) of the compound against SH3 domain binding
T1 construct: (Sam68ΔC) [Sam68(331-443): made by Santa Cruz Co.]; purchased Santa Cruz Sam68(331-443); Fyn(85-139) AC
T1 sequence (Q07666 331-443, stated change not applied): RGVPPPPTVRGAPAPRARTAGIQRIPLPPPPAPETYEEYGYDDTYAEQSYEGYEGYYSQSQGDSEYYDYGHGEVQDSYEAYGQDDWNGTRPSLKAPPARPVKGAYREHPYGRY
Method: (1) Treatment of Proteins Containing the Proline-Rich Sequences with the Compounds.
The recombinant human Sam68 containing the 2 proline-rich sequences at the C terminal out of 5 proline-rich sequences in Sam68 containing proline-rich sequences (Sam68ΔC) [Sam68(331-443): made by Santa Cruz Co.], 0.25 μg was added to 1 mL of RSB buffer (10 mmol/L Tris-HCl, pH 7.6, 10 mmol/L NaCl, 1.5 mmol/L MgCl2), which is a hypotonic buffer solution containing 0.1% BSA (bovine serum albumin) [bovine serum albumin (F-V): made by Nakaraitesk] to prepare a Sam68ΔC solution. The compound was dissolved in dimethylsulfoxide (DMSO) to prepare a 10 mmol/L solution in DMSO. […] The same amount of DMSO was added to each sample. The compound was subjected to the reaction with Sam68ΔC by incubating the mixture at 37° C. for 6 hours with rotation by a roller culture machine.
(2) Treatment of Proteins Containing the SH3 Domain with the Proteins Containing the Proline-Rich Sequences Treated with the Compounds.
The Sam68ΔC solution treated with the compound, which was obtained in (1), was applied to 5 μL of Fyn-SH3-agarose beads (Fyn-SH3 beads) [Fyn(85-139) AC; made by Santa Crutz Co.], which was a mouse recombinant protein of the Fyn SH3 domain containing the SH3 domain bound to agarose beads. The binding reaction of the Sam68ΔC reacted with the compounds with Fyn-SH3 beads containing the SH3 domain were carried out at 4° C. for 16 hours with slow rotation by the roller culture machine. After the reaction, a resulting complex of Sam68ΔC and Fyn-SH3 beads was precipitated by centrifugation at […] for 3 minutes at 4° C., and then 1 mL of the TritonX/Np40 extraction buffer containing detergents [50 mmol/L Tris-HCl buffer, pH 7.4, 150 mmol/L NaCl, 1 mmol/Lethylenediaminetetraacetic acid (EDTA), 1% TritonX-100, 0.5% Nonidet P-40] was added thereto. The mixture was rotated slowly at 4° C. for 10 minutes by the roller culture machine, and precipitated and washed twice in a similar manner to that as described above. To the complex of Sam68ΔC and Fyn-SH3 beads washed above, 30 μL of Lemery's sample buffer [Protein Chemistry I-Isolation and Purification, Tokyo Kagaku Dojin, p. 211 (1976)] was added, and then the mixture was mixed well and heated at 100° C. for 10 minutes. After precipitating the beads at 1000 ppm for 5 minutes at 25° C. by a centrifuge, the supernatant was subjected to 10% polyacrylamide gel electrophoresis.
(3) Detection of Sam68ΔC Bound to the Fyn-SH3 by Western Blotting.
Sam68ΔC in the supernatant was detected by Western blotting as follows. First, the resulting gel performed the electrophoresis, which was obtained in (2), was blotted onto a nitrocellulose membrane with pore size of 0.45 μm [Protran; made by Schleicher and Schuell Co.]. After non-specific binding of the membrane was blocked by incubating the membrane at 4° C. overnight in phosphate buffer (PBS) containing 0.25% gelatin and 0.2% Tween-20 (PBS-TG), the membrane reacted with mouse anti GST antibody conjugated with horse radish peroxidase (HRP) [GST (B-14) HRP; made by Santa Crutz Co.], which was diluted 1000 times with PBS-TG, for 2 hours. After washing with PBS containing 0.2% Tween 20 (PBS-T), the detection was carried out by the chemo-luminescence reaction using ECL reagent (Amersham Pharmacia Biotech Co.).
The inhibition ratios of the compound against the SH3 domain binding were calculated as follows based on the plot of the results of the Test Example 1. The intensity of the chemo-luminescent bands of Fyn-SH3 and Sam68ΔC developed on a film was measured by a gel-scanner (TYOBO). The relative intensity of Sam68ΔC band against the intensity of Fyn-SH3 band was obtained by dividing the Sam68ΔC band intensity by the Fyn-SH3 band intensity. The ratio of the Fyn-SH3 band intensity to the Sam68ΔC band intensity was set to be 100% when no compound was added. […]

[2] = test system: MT2 cells; assay: Cyto-toxicity test, Trypan blue live cell count; assay type: cell-based; conditions: 10 μmol/L, incubated for 3 days
Method: MT2 cells (T cell strain) were suspended in RPMI1640 medium (GIBCO, No. 26140-076) supplemented with 10% fetal calf serum (GIBCO, No. 26140-079) at 2×10^5 cells/mL and distributed into each well of 96 well plates [96 well plate: Coster] at 100 μL per well. The compound was added to each well and incubated for 3 days. The cultures were observed under a microscope to examine the condition of cells and cells were harvested, stained with 0.4% Trypan blue (SIGMA, T-8154) and live cells were counted.

[3] = test system: HIV-1 LAI strain; assay: HIV-1 growth inhibition test (RT assay) in MT2 cells; assay type: cell-based; conditions: MT2 cells, 3, 5, 7 and 9 days after infection; 1, 5, 10, 25 and 50 mmol/L as printed; FIGS. 9-11 Compound 1, FIGS. 12-14 PP2
Method: (1) HIV-1 Infection and Growth Inhibition Experiment.
MT2 cells (T cell strain) were suspended in RPMI1640 medium (GIBCO No.26140-076) supplemented with 10% fetal calf serum (GIBCO, No.26140-079) at 2×10^5 cells/mL and distributed into the each well of 24 well plates (24 well plate: Coster No. 3526) by 1 mL per well. HIV-1 LAI strain {pLAI that contains DNA clone of the whole genome [GeneBank accession No. K02013 Virology 185:661 (1991)] was transfected to HeLa cells by using FuGENE6 Transfection Reagent (Roche Co. No. 1814443), incubated for 2 days and the supernatant was used.} was inoculated to each well at a final concentration of 500 cpm/μL and incubated at 37° C. overnight (virus infection). […]
HIV-1 was determined by the RT assay (Reverse Transcriptase sassy) according to the method described in J. Virol., Vol. 38, p. […]
To 5 μL of the culture supernatant obtained in (1), 25 μL of RT cocktail {50 mmol/L Tris-HCl pH 7.5, 50 mmol/L EDTA, 75 mmol/L KCl, 5 mmol/L MgCl2, 5 μg/mL Poly(A) [Pharmacia, No. 27-4110-01], 1.6 μg/mL oligo(dT)12-18 [Pharmacia, No. 27-7858-01], 5 mmol/L DTT (dithiothreitol), 0.05% NP-40 and 10 PCi/ml [α-^32P]dTTP} was added, and the mixture was incubated at 37° C. for 2 hours. […] The amount of HIV-1 was measured as RT activity count (cpm/μL) with a MICROBRTA PLUS liquid scintillation counter (Perkin Elmer). […]

[4] = Concentration of the compound 60 μmol/L
[5] = Concentration of the compound 150 μmol/L
[6] = Concentration of the compound 20 μmol/L
[7] = Concentration of the compound 100 μmol/L

Row | Molecule | inhibition at 60 µM [1, 4] | inhibition at 150 µM [1, 5] | further results
1 | CC1=CC2/C=C(\C)CCCC(O)/C=C/C(=O)OC23C(=O)NC(CC(C)C)C3C1C (stereo not drawn) [Compound 21] | 64% | 100% | –
2 | COc1ccc(CC2NC(=O)C34OC(=O)O/C=C/C(C)(O)C(=O)C(C)C/C=C/C3C(O)C(C)=C(C)C24)cc1 (stereo not drawn) [Compound 19] | – | 40% | –
3 | CC1=CC2/C=C(\C)CCC(O)C(O)/C=C/C(=O)C23C(=O)NC(CC(C)C)C3C1C (stereo not drawn) [Compound 26, Aspochalasin C] | 92% | 100% | –
4 | CC1=CC2/C=C(\C)CCC(O)C(O)/C=C/C(=O)C23C(=O)NC(CC(C)C)C3C1C (stereo not drawn) [Compound 27, Aspochalasin D] | – | – | The inhibition ratio (%) of the compound against SH3 domain binding [1, 4]: 100%; The inhibition ratio (%) of the compound against SH3 domain binding [1, 5]: 100%
5 | UCS15A [Compound 1] | – | – | The inhibition ratio (%) of the compound against SH3 domain binding [1, 4]: 0%; The inhibition ratio (%) of the compound against SH3 domain binding [1, 5]: 46%; live cells (Trypan blue) [2]: live cells were not decreased
6 | CC(C)(C)n1nc(-c2ccc(Cl)cc2)c2c(N)ncnc21 [pp2, 4-amino-5-(4-chrolophenyl)-7-(tert-butyl)-pyrazolo[3,4-d]pyrimidine] | – | – | amount of HIV-1 (RT activity count) [3]: increased
7 | CC1=CC2/C=C(\C)CCC(O)C(=O)/C=C/C(=O)C23C(=O)NC(CC(C)C)C3C1C (stereo not drawn) [Compound 25, Aspochalasin B] | 87% | 100% | –
8 | C[C@H]1C/C=C/[C@H]2[C@@H]3O[C@]3(C)[C@@H](C)[C@H]3[C@H](Cc4ccccc4)NC(=O)[C@]32OC(=O)O/C=C/[C@@](C)(O)C1=O [Compound 13, Cytochalasin E] | – | – | The inhibition ratio (%) of the compound against SH3 domain binding [1, 6]: 0%; The inhibition ratio (%) of the compound against SH3 domain binding [1, 7]: 21%
9 | COc1ccc(CC2NC(=O)C34OC(=O)OCCC(C)(O)C(=O)C(C)C/C=C/C3C3OC3(C)C(C)C24)cc1 (stereo not drawn) [Compound 17] | – | 36% | –
10 | C=C1C(C)C2C(Cc3ccc(OC)cc3)NC(=O)C23OC(=O)O/C=C/C(C)(O)C(=O)C(C)C/C=C/C3C1O (stereo not drawn) [Compound 18] | 16% | 67% | –
11 | CC1=CC(/C=C(\C)CCC=O)C2(C(=O)/C=C/C=O)C(=O)NC(CC(C)C)C2C1C (stereo not drawn) [Compound 22] | 91% | 100% | –
12 | CC1=CC2/C=C(\C)CCC(O)C(O)/C=C/C(=O)OC23C(=O)NC(CC(C)C)C3C1C (stereo not drawn) [Compound 20] | 92% | 100% | –
13 | C/C1=C\CC(=O)OC23C(=O)NC(Cc4ccc(O)cc4)C2C(C)C2(C)OC2C3/C=C/CC(C)C1=O (stereo not drawn) [Compound 16] | 67% | 78% | –
14 | CC1=CC2/C=C(\C)CCC(O)C(O)C(O)CC(=O)C23C(=O)NC(CC(C)C)C3C1C (stereo not drawn) [Compound 28, Aspochalasin E] | 31% | 73% | –
15 | Mer-WF1726 [Compound 12] | – | – | The inhibition ratio (%) of the compound against SH3 domain binding [1, 6]: 39%; The inhibition ratio (%) of the compound against SH3 domain binding [1, 7]: 88%
16 | CC1=CC2/C=C(\C)CCC(=O)C(=O)CCC(=O)C23C(=O)NC(CC(C)C)C3C1C (stereo not drawn) [Compound 24, Aspochalasin A] | 62% | 80% | –
